Columns and labels:
[1] = system: patients with stage I-III hypertension; assay: Fixed-dose eplerenone vs placebo, clinic and ambulatory BP, 12 weeks (Example D-13); format: in vivo, human
Text: Patients were reassessed using clinic and ambulatory BP at the end of 12 weeks of therapy.

[2] = system: patients with hypertension; assay: Dose-ranging study of eplerenone vs placebo and spironolactone in hypertension (Examples A-14, D-1); format: in vivo, human
Protocol: A multicenter, randomized, double-blind, parallel group study was conducted in patients with hypertension. […] The study consisted of a two-week pretreatment period for completion of screening procedures and discontinuation of any current antihypertensive medication(s). The screening period was followed by a four-week single-blind placebo lead-in treatment period. Randomization was followed by an eight-week double-blind active or placebo treatment period. The primary efficacy measure was the change from baseline in cuff diastolic blood pressure measured at trough as compared to placebo. Secondary efficacy measures included changes in cuff assessed trough systolic blood pressure and changes in average 24-hour diastolic and systolic blood pressure assessed by ambulatory blood pressure monitoring. Safety was assessed by conducting routine clinical lab tests, physical exams, ECGs, and monitoring for adverse events. […] The adjusted mean change in blood pressure (mm Hg) from baseline to final visit is described in Table […].

[3] = system: patients not controlled with ACE-I or ARB; assay: Co-administration of eplerenone with ACE-I or ARB in mild-moderate hypertension (Example D-9); format: in vivo, human
Protocol: Patients examined in the study were those who currently were treated with an ACE-I and/or ARB and who had DBP ≧95 mmHg and <110 mmHg and SBP <180 mmHg. Previous antihypertensive therapy was withdrawn except a fixed dose of single ACE-I or ARB.

[4] = system: patients with mild-to-moderate hypertension; assay: Eplerenone versus enalapril in essential hypertension, 12-month titration-to-effect (Example D-3); format: in vivo, human
Protocol: The study design is illustrated in FIG. D-6. Patients with mild-to-moderate hypertension (diastolic blood pressure [DBP]≧95 mmHg and <110 mmHg) were randomized to receive initially EPL 50 mg QD (n=253) or ENAL 10 mg QD (n=246). If DBP ≧90 mmHg at Weeks 4, 8, 12, 16, or 20, the dose of study medication was up-titrated incrementally to EPL 100 mg and 200 mg QD, or ENAL 20 mg and 40 mg QD. […] At 24 wks and 12 months, changes in BP, RAAS hormone profile, urinary albumin excretion (urinary albumin: creatinine ratio [UACR]), laboratory tests, safety, and adverse events (AEs) were assessed.

[5] = system: older patients with systolic hypertension and/or widened pulse pressure; assay: Eplerenone versus amlodipine in systolic hypertension in older people, 24 weeks (Examples A-19, D-8); format: in vivo, human
Text: At Week 10 or thereafter, if SBP is =170 mmHg on two consecutive visits, one to three days apart, and the patient is on the maximum dose of study drug, he/she must be withdrawn. Patients will receive double-blind study medication for a total of 24 weeks. Table A-19A illustrates the above-described dosing scheme.
Heart rate, BP, serum potassium levels, concomitant medications and adverse events will be assessed at each visit. […] Special studies: collagen markers [aminoterminal propeptide of type III procollagen (PIIINP), 7S domain of type IV collagen (7SIVC), and type I collagen telopeptide (ICTP)], plasma […] (PAI-1), tissue plasminogen activator (t-PA), microalbuminuria, and at selected sites, Ambulatory Blood Pressure Monitoring (ABPM) and arterial compliance will be done at Weeks 0, 14, and 24 or at Final Visit. Quality of Life Questionnaires will be done at visit 2A (beginning of single blind) and Weeks 0, 14, and 24 or at Final Visit. DNA genotyping will be performed at baseline.
In older patients, elevated systolic BP and wide pulse pressure predict cardiovascular risk better than diastolic BP. Reduced vascular compliance and intraglomerular hypertension typically accompany isolated systolic hypertension in older people.
Changes in arterial compliance, measured by pulse-wave velocity, microalbuminuria, and adverse effects (AEs) were assessed at baseline and after 24 weeks of therapy.

[6] = system: patients with low-renin hypertension; assay: Eplerenone versus losartan in low-renin hypertension, 16 weeks (Examples A-16, D-5); format: in vivo, human
Text: Patients will continue on therapy until Week 16. Table […] illustrates the above-described dosing scheme. […] Plasma renin will be determined at screening; serum aldosterone, plasma renin, and plasma cortisol will be determined at Weeks 0, 8, and 16. […] A 12-lead electrocardiogram will be done at Weeks 0 and 16. Physical examinations will be completed at screening and at Week 16. […] Secondary measures of efficacy will be the following: […] Study design is illustrated in FIG. D-16. […] At Weeks 8 and 16, BP, RAAS hormone profile, and safety were assessed.

[7] = system: saline-loaded adrenalectomized rats treated with aldosterone; assay: Antimineralocorticoid activity in saline-loaded adrenalectomized rats treated with aldosterone (Example A-2); format: in vivo
Protocol: Methods: The antimineralocorticoid pharmacological activity was determined in saline-loaded adrenalectomized rats treated with aldosterone. […] Urinary sodium, potassium and water excretion were measured.

[8] = addition of eplerenone, 8 weeks
[9] = Week 24, EPL 50-200 mg QD, ENAL 10-40 mg QD titrated
[10] = after 24 weeks, titration-to-effect
[11] = Week 8 (monotherapy), EPL 100-200 mg QD, LOS 50-100 mg QD
[12] = Week 16, after allowed addition of HCTZ

Q: With COC(=O)[C@@H]1CC2=CC(=O)CC[C@]2(C)[C@@]23O[C@@H]2C[C@@]2(C)[C@@H](CC[C@@]24CCC(=O)O4)[C@H]13 [Eplerenone, Pregn-4-ene-7,21-dicarboxylic acid, 9,11-epoxy-17-hydroxy-3-oxo-, γ-lactone, methyl ester, (7α, 11α, 17β)-] as the molecule, how does the “Δ Ambulatory BP, diastolic” value ([1]; 25 mg QD) read?
A: −4.4 mmHg

Q: What about the “Δ Ambulatory BP, systolic” value ([1]; 25 mg QD) of the same molecule?
A: −6.4 mmHg

Q: What about the “Δ Clinic BP, diastolic” value ([1]; 25 mg QD) of the same molecule?
A: −3.7 mmHg

Q: And the “Δ Clinic BP, systolic” value ([1]; 25 mg QD)?
A: −5.7 mmHg

Q: And the “Δ Ambulatory BP, diastolic” value ([1]; 50 mg QD)?
A: −4.1 mmHg

Q: What about the “Δ Ambulatory BP, systolic” value ([1]; 50 mg QD) of the same molecule?
A: −6.8 mmHg

Q: And the “Δ Clinic BP, diastolic” value ([1]; 50 mg QD)?
A: −4.6 mmHg

Q: And the “Δ Clinic BP, systolic” value ([1]; 50 mg QD)?
A: −6.7 mmHg

Q: What about the “Δ Ambulatory BP, diastolic” value ([1]; 100 mg QD) of the same molecule?
A: −5.5 mmHg

Q: What about the “Δ Ambulatory BP, systolic” value ([1]; 100 mg QD) of the same molecule?
A: −9.1 mmHg

Q: What about the “Δ Clinic BP, diastolic” value ([1]; 100 mg QD) of the same molecule?
A: −6.3 mmHg

Q: What about the “Δ Clinic BP, systolic” value ([1]; 100 mg QD) of the same molecule?
A: −10.4 mmHg

Q: And the “Δ Ambulatory BP, diastolic” value ([1]; 200 mg QD)?
A: −5.7 mmHg

Q: What about the “Δ Ambulatory BP, systolic” value ([1]; 200 mg QD) of the same molecule?
A: −10.3 mmHg

Q: What about the “Δ Clinic BP, diastolic” value ([1]; 200 mg QD) of the same molecule?
A: −5.4 mmHg

Q: And the “Δ Clinic BP, systolic” value ([1]; 200 mg QD)?
A: −8.8 mmHg

Q: What about the “gynecomastia, menstrual abnormalities, breast pain” value ([1]; 25-200 mg QD) of the same molecule?
A: no reports of gynecomastia, menstrual abnormalities, or breast pain

Q: And the gynecomastia ([2]; 50-400 mg daily, 8 weeks)?
A: no reports of gynecomastia

Q: And the safety and tolerability ([2]; 50-400 mg daily, QD or divided doses)?
A: safe and well tolerated

Q: And the “DBP and SBP vs. placebo” value ([2]; wide range of doses, regardless of assessment method (FIG. D-1, D-2))?
A: significant reductions

Q: What about the “laboratory abnormalities, K+, adverse events” value ([3]; addition of eplerenone to ACE-I or ARB) of the same molecule?
A: No significant increase in relevant laboratory abnormalities

Q: What about the “SBP & DBP in patients currently treated with ARB” value [3, 8] of the same molecule?
A: Significant reductions in SBP & DBP

Q: What about the “SBP in patients currently treated with ACE-I” value [3, 8] of the same molecule?
A: Significant reductions in SBP

Q: What about the heart rate ([3]; either group) of the same molecule?
A: No change in heart rate

Q: And the patients experiencing coughing ([4]; 12-month study)?
A: 2.4%

Q: What about the patients experiencing hyperglycemia ([4]; 12-month study) of the same molecule?
A: 0.0%

Q: And the “patients experiencing urinary tract infections (UTI)” value ([4]; 12-month study)?
A: 0.4%

Q: What about the DBP change ([4]; 12 months) of the same molecule?
A: −13.3 mmHg

Q: What about the SBP change ([4]; 12 months) of the same molecule?
A: −16.5 mmHg

Q: What about the DBP change [4, 9] of the same molecule?
A: −11.2 mmHg

Q: What about the SBP change [4, 9] of the same molecule?
A: −14.5 mmHg

Q: What about the “reduction in UACR” value ([4]; Week 24, patients with baseline UACR ≧30 mg/g) of the same molecule?
A: −61.5%

Q: And the safety and tolerability ([4]; in vivo)?
A: safe and well tolerated

Q: And the “Edema rates (%)” value ([5]; 24-week study)?
A: 3.7%

Q: And the peripheral edema frequency ([5]; 24 weeks)?
A: 3.7%

Q: And the “reduction in pulse pressure” value ([5]; 24 weeks)?
A: −15.9 mmHg

Q: And the “symptoms with significant and clinically meaningful worsening in distress from Baseline (QoL)” value ([5]; 24 weeks)?
A: no worsening in distress

Q: And the “reduction in SBP” value ([5]; 24 weeks, EPL 50-200 mg QD, AML 2.5-10 mg QD)?
A: −20.5 mmHg

Q: And the “Pulse Pressure (change)” value [5, 10]?
A: −15.9 ± 0.96 mmHg

Q: And the “Systolic BP (change)” value [5, 10]?
A: −20.5 ± 1.14 mmHg

Q: And the safety and tolerability ([5]; in vivo)?
A: safe and well tolerated

Q: And the “Δ microalbuminuria (%)” value ([5]; only for patients with baseline microalbuminuria (>30 mg/g), 24 weeks)?
A: −52.3%

Q: And the “reduction in UACR” value ([5]; patients with baseline microalbuminuria (>30 mg/g))?
A: −27.1%

Q: What about the “cumulative percentage of patients requiring HCTZ add-on therapy” value ([6]; 16 weeks) of the same molecule?
A: 32.5%

Q: What about the “increase in active renin levels” value ([6]; Week 8) of the same molecule?
A: +50.1%

Q: And the “increase in serum aldosterone levels” value ([6]; Week 8)?
A: +74.7%

Q: And the “mean change from baseline in DBP” value [6, 11]?
A: −9.3 mmHg

Q: And the “mean change from baseline in SBP” value [6, 11]?
A: −15.8 mmHg

Q: And the “increase in active renin levels” value ([6]; Week 16)?
A: +73.0%

Q: What about the “increase in serum aldosterone levels” value ([6]; Week 16) of the same molecule?
A: +89.8%

Q: And the “mean change from baseline in DBP” value [6, 12]?
A: −10.8 mmHg

Q: What about the “mean change from baseline in SBP” value [6, 12] of the same molecule?
A: −18.3 mmHg

Q: And the safety and tolerability ([6]; in vivo)?
A: safe and well tolerated

Q: And the “Urinary Na/K ± SEM” value ([7]; aldosterone & antagonist 1 mg/kg by gavage)?
A: 2.53 ± 0.23

Q: And the “Urinary Na/K ± SEM” value ([7]; aldosterone & antagonist 3 mg/kg by gavage)?
A: 4.08 ± 0.26

Q: And the “Urinary Na/K ± SEM” value ([7]; aldosterone & antagonist 10 mg/kg by gavage)?
A: 4.11 ± 0.27

— patent publication US20070191324A1, “Methods for treatment or prophylaxis of aldosterone-mediated pathogenic effects in a subject using an epoxy-steroidal aldosterone antagonist” (priority 1999, published 2007)
